The source of these data is ChEMBL document CHEMBL1139115, “Thyroid receptor ligands. Part 7: Indirect antagonists of the thyroid hormone receptor with improved affinity” (Bioorg Med Chem Lett, 2007).

The target in one experiment is T1, Androgen receptor (Homo sapiens, UniProt P10275).
T1 sequence (P10275 whole entry): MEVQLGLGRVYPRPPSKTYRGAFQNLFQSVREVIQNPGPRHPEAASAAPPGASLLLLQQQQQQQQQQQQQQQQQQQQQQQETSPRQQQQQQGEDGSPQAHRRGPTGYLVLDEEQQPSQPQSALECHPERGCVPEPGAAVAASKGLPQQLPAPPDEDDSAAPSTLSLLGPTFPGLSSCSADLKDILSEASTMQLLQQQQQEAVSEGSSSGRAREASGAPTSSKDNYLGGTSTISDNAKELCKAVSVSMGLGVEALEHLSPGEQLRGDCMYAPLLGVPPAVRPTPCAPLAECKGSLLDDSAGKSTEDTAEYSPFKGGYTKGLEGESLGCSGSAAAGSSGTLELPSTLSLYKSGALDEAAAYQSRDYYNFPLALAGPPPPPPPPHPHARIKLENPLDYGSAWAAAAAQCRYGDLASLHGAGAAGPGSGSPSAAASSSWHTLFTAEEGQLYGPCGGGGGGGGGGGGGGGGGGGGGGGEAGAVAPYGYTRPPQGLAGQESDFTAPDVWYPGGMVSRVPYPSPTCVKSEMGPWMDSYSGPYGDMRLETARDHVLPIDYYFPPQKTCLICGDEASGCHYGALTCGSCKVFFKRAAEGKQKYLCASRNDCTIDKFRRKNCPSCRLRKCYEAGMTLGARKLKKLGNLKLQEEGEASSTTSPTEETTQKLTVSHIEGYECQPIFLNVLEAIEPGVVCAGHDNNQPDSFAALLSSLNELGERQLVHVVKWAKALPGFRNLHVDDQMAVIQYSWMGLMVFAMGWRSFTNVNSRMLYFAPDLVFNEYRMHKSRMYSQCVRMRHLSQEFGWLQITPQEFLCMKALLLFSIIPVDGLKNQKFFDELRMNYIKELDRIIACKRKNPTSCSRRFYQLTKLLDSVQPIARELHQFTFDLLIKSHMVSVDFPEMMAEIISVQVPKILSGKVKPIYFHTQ
Description: Binding affinity at AR.

Another experiment deals with T2, Progesterone receptor (Homo sapiens, UniProt P06401).
T2 sequence (P06401 whole entry): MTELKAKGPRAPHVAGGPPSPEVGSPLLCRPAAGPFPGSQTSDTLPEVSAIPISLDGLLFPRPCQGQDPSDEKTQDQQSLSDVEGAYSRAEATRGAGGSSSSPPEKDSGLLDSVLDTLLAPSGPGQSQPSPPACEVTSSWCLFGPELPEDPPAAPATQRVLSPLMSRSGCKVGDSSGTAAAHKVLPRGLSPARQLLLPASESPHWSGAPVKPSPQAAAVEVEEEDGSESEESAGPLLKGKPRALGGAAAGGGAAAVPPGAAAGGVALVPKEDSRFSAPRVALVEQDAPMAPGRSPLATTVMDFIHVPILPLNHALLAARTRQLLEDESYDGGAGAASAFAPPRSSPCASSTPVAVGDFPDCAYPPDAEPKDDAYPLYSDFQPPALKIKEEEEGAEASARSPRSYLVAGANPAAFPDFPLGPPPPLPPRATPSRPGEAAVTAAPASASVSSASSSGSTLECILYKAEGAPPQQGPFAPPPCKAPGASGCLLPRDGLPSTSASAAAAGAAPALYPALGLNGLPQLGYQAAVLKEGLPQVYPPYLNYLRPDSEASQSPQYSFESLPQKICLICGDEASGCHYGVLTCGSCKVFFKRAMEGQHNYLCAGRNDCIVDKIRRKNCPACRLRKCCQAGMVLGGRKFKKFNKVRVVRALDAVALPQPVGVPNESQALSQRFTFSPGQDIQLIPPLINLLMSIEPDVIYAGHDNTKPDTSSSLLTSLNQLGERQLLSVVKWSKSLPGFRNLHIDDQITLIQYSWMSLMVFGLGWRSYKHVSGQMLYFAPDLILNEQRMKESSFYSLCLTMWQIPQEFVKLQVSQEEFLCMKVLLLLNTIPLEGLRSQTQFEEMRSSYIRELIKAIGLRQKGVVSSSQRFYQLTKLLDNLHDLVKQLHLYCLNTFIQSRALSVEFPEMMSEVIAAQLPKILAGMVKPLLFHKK
Put plainly: Binding affinity at PR.

Experiment [1] has as its target T3, Thyroid hormone receptor beta (Homo sapiens, UniProt P10828).
T3 sequence (P10828 whole entry): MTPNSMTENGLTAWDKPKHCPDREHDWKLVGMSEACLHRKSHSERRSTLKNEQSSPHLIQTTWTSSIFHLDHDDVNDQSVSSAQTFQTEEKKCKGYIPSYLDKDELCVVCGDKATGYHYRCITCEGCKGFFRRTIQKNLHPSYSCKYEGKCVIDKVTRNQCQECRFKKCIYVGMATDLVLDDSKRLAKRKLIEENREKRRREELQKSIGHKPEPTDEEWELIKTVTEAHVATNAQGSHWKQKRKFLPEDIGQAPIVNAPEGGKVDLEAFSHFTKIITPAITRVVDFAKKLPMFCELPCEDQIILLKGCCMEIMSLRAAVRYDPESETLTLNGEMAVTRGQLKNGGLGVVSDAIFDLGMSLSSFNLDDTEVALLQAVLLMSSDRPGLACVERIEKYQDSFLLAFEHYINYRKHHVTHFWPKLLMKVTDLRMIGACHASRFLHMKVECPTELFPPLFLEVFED
Put plainly: Binding affinity at human TRbeta1.

The next experiment addresses T4, Glucocorticoid receptor (Homo sapiens, UniProt P04150).
T4 sequence (P04150 whole entry): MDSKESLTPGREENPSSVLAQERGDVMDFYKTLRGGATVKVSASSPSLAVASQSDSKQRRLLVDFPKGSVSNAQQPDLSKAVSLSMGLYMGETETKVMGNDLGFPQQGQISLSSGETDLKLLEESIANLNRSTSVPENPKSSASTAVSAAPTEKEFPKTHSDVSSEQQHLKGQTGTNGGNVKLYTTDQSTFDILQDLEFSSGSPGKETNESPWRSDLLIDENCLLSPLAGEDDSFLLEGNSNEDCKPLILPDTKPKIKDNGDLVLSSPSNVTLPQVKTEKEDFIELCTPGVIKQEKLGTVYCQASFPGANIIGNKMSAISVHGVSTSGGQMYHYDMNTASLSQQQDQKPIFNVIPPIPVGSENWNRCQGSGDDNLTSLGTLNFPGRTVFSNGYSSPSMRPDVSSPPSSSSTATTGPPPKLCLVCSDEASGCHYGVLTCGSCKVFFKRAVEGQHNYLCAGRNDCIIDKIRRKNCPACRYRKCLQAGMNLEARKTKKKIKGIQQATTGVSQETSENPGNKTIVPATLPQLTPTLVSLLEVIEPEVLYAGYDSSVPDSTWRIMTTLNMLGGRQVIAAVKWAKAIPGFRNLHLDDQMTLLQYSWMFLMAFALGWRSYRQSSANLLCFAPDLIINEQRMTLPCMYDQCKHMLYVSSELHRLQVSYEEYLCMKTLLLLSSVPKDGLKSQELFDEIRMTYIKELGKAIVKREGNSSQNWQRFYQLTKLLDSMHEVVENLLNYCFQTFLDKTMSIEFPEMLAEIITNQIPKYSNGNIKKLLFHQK
Description: Binding affinity at GR.

Usually IC50 stands for the concentration at which inhibition is half-maximal. As to `O=C(O)CCc1cc(Br)c(OCc2cccc(Br)c2)c(Br)c1`, the IC50 came to 7.7 µM at Androgen receptor, 2.5 µM at Progesterone receptor, 0.06 µM in experiment [1] and 14 µM at Glucocorticoid receptor.
